Source: PubChem BioAssay (NCI)
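Cultured in 96-well plates, cells were exposed to test compound for 48 hours across five concentrations. The concentration for 50% growth inhibition is given as GI50. At the TGI there is no net growth.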

Legend:
Assay in all cases: inhibition of tumour cell growth, NCI panel, 48 h
UACC-62 melanoma = test system: UACC-62 melanoma
HCT-15 colon = test system: HCT-15 colon
MALME-3M melanoma = test system: MALME-3M melanoma
OVCAR-3 ovarian = test system: OVCAR-3 ovarian
SF-539 CNS = test system: SF-539 CNS
MOLT-4 leukemia = test system: MOLT-4 leukemia
OVCAR-5 ovarian = test system: OVCAR-5 ovarian
MCF7 breast = test system: MCF7 breast
COLO 205 colon = test system: COLO 205 colon
TK-10 renal = test system: TK-10 renal
NCI/ADR-RES ovarian = test system: NCI/ADR-RES ovarian
SF-268 CNS = test system: SF-268 CNS
SN12C renal = test system: SN12C renal
LOX IMVI melanoma = test system: LOX IMVI melanoma
T-47D breast = test system: T-47D breast
OVCAR-8 ovarian = test system: OVCAR-8 ovarian
RXF 393 renal = test system: RXF 393 renal
786-0 renal = test system: 786-0 renal
BT-549 breast = test system: BT-549 breast
HT29 colon = test system: HT29 colon
PC-3 prostate = test system: PC-3 prostate
OVCAR-4 ovarian = test system: OVCAR-4 ovarian
NCI-H522 lung = test system: NCI-H522 lung
SR leukemia = test system: SR leukemia
HL-60(TB) leukemia = test system: HL-60(TB) leukemia
A549 NSCLC = test system: A549 NSCLC
CCRF-CEM leukemia = test system: CCRF-CEM leukemia
UACC-257 melanoma = test system: UACC-257 melanoma
MDA-MB-231 breast = test system: MDA-MB-231 breast
ACHN renal = test system: ACHN renal
IGROV1 ovarian = test system: IGROV1 ovarian
SK-MEL-28 melanoma = test system: SK-MEL-28 melanoma
SK-MEL-5 melanoma = test system: SK-MEL-5 melanoma
SNB-19 CNS = test system: SNB-19 CNS
NCI-H226 lung = test system: NCI-H226 lung
UO-31 renal = test system: UO-31 renal
SK-MEL-2 melanoma = test system: SK-MEL-2 melanoma
SNB-75 CNS = test system: SNB-75 CNS
EKVX NSCLC = test system: EKVX NSCLC
NCI-H23 lung = test system: NCI-H23 lung
M14 melanoma = test system: M14 melanoma
MDA-MB-435 = test system: MDA-MB-435
SW-620 colon = test system: SW-620 colon
HS 578T breast = test system: HS 578T breast
NCI-H460 lung = test system: NCI-H460 lung
U251 CNS = test system: U251 CNS
K-562 leukemia = test system: K-562 leukemia
A498 renal = test system: A498 renal
HCC-2998 colon = test system: HCC-2998 colon
DU-145 prostate = test system: DU-145 prostate
RPMI-8226 leukemia = test system: RPMI-8226 leukemia
HCT-116 colon = test system: HCT-116 colon
KM12 colon = test system: KM12 colon
CAKI-1 renal = test system: CAKI-1 renal
SF-295 CNS = test system: SF-295 CNS
HOP-62 NSCLC = test system: HOP-62 NSCLC
SK-OV-3 ovarian = test system: SK-OV-3 ovarian

## CCN1/C(=C/C=C/c2n(-c3ccccc3)c3ccc(-c4nc5ccccc5s4)cc3[n+]2CC)N(c2ccccc2)c2ccc(-c3nc4ccccc4s3)cc21
UACC-62 melanoma
  GI50: 0.97 µM
  TGI: > 50 µM
HCT-15 colon
  GI50: 1 µM
  TGI: > 50 µM
MALME-3M melanoma
  GI50: 0.161 µM
  TGI: 0.838 µM
OVCAR-3 ovarian
  GI50: 1.01 µM
  TGI: 10.3 µM
SF-539 CNS
  GI50: 0.854 µM
  TGI: 5.75 µM
MOLT-4 leukemia
  GI50: 1.8 µM
  TGI: > 50 µM
OVCAR-5 ovarian
  GI50: 1.53 µM
  TGI: > 50 µM
MCF7 breast
  GI50: 0.426 µM
  TGI: > 50 µM
COLO 205 colon
  GI50: 0.187 µM
  TGI: 0.919 µM
TK-10 renal
  GI50: 1.94 µM
  TGI: > 50 µM
NCI/ADR-RES ovarian
  GI50: 3.55 µM
  TGI: > 50 µM
SF-268 CNS
  GI50: 0.525 µM
  TGI: > 50 µM
SN12C renal
  GI50: 0.175 µM
  TGI: 2.44 µM
LOX IMVI melanoma
  GI50: 1.22 µM
  TGI: > 50 µM
T-47D breast
  GI50: 0.746 µM
  TGI: > 50 µM
OVCAR-8 ovarian
  GI50: 0.304 µM
  TGI: 5.82 µM
RXF 393 renal
  GI50: 0.563 µM
  TGI: 7.37 µM
786-0 renal
  GI50: 0.602 µM
  TGI: > 50 µM
BT-549 breast
  GI50: 0.5 µM
  TGI: 3.28 µM
HT29 colon
  GI50: 0.333 µM
  TGI: > 50 µM
PC-3 prostate
  GI50: 0.284 µM
  TGI: > 50 µM
OVCAR-4 ovarian
  GI50: 0.765 µM
  TGI: > 50 µM
NCI-H522 lung
  GI50: 0.585 µM
  TGI: 3.41 µM
SR leukemia
  GI50: 1.4 µM
  TGI: > 50 µM
HL-60(TB) leukemia
  GI50: 0.464 µM
  TGI: > 50 µM
A549 NSCLC
  GI50: 0.284 µM
  TGI: > 26.1 µM
CCRF-CEM leukemia
  GI50: 2.69 µM
  TGI: > 50 µM
UACC-257 melanoma
  GI50: 0.539 µM
  TGI: > 15.4 µM
MDA-MB-231 breast
  GI50: 0.19 µM
  TGI: 1.68 µM
ACHN renal
  GI50: 0.622 µM
  TGI: > 50 µM
IGROV1 ovarian
  GI50: 0.75 µM
  TGI: > 50 µM
SK-MEL-28 melanoma
  GI50: 0.488 µM
  TGI: 5.82 µM
SK-MEL-5 melanoma
  GI50: 0.184 µM
  TGI: 1.27 µM
SNB-19 CNS
  GI50: 0.369 µM
  TGI: > 50 µM
NCI-H226 lung
  GI50: 0.317 µM
  TGI: 15.6 µM
UO-31 renal
  GI50: 0.622 µM
  TGI: 3.57 µM
SK-MEL-2 melanoma
  GI50: 0.89 µM
  TGI: 2.85 µM
SNB-75 CNS
  GI50: 0.347 µM
  TGI: > 46.7 µM
EKVX NSCLC
  GI50: 0.387 µM
  TGI: > 50 µM
NCI-H23 lung
  GI50: 0.533 µM
  TGI: 5.08 µM
M14 melanoma
  GI50: 0.437 µM
  TGI: 4.62 µM
MDA-MB-435
  GI50: 1.35 µM
  TGI: > 50 µM
SW-620 colon
  GI50: 0.445 µM
  TGI: > 50 µM
HS 578T breast
  GI50: 0.284 µM
  TGI: > 50 µM
NCI-H460 lung
  GI50: 0.527 µM
  TGI: > 50 µM
U251 CNS
  GI50: 0.274 µM
  TGI: 1.92 µM
K-562 leukemia
  GI50: 0.471 µM
  TGI: > 50 µM
A498 renal
  GI50: 0.246 µM
  TGI: 2.39 µM
HCC-2998 colon
  GI50: 1.69 µM
  TGI: > 31.1 µM
DU-145 prostate
  GI50: 0.374 µM
  TGI: 2.49 µM
RPMI-8226 leukemia
  GI50: 0.303 µM
  TGI: > 50 µM
HCT-116 colon
  GI50: 0.436 µM
  TGI: > 50 µM
KM12 colon
  GI50: 1.24 µM
  TGI: > 50 µM

## COc1cc2c(cc1OCCCCCOc1cc3c(cc1OC)C(=O)N1CC(F)C[C@H]1C=N3)N=C[C@@H]1CC(F)CN1C2=O (some centres undefined)
UACC-62 melanoma
  GI50: 0.0511 µM
  TGI: 0.224 µM
HCT-15 colon
  GI50: 1.11 µM
  TGI: 3.72 µM
MALME-3M melanoma
  GI50: 0.124 µM
  TGI: 0.733 µM
OVCAR-3 ovarian
  GI50: 0.128 µM
  TGI: 0.51 µM
CAKI-1 renal
  GI50: < 0.01 µM
  TGI: 0.411 µM
SF-539 CNS
  GI50: 0.0161 µM
  TGI: 0.458 µM
MOLT-4 leukemia
  GI50: < 0.01 µM
  TGI: 0.0663 µM
OVCAR-5 ovarian
  GI50: 0.117 µM
  TGI: 3.25 µM
MCF7 breast
  GI50: < 0.0108 µM
  TGI: 1.31 µM
COLO 205 colon
  GI50: 0.191 µM
  TGI: 0.465 µM
TK-10 renal
  GI50: 1.98 µM
  TGI: 6.32 µM
NCI/ADR-RES ovarian
  GI50: 0.553 µM
  TGI: 9.87 µM
SF-268 CNS
  GI50: < 0.01 µM
  TGI: 1.19 µM
SF-295 CNS
  GI50: < 0.0148 µM
  TGI: 0.694 µM
SN12C renal
  GI50: < 0.0427 µM
  TGI: 0.952 µM
T-47D breast
  GI50: 0.265 µM
  TGI: 14 µM
OVCAR-8 ovarian
  GI50: 0.138 µM
  TGI: 2.06 µM
786-0 renal
  GI50: < 0.01 µM
  TGI: 0.16 µM
BT-549 breast
  GI50: 0.0939 µM
  TGI: 0.721 µM
HT29 colon
  GI50: 0.246 µM
  TGI: > 58.6 µM
HOP-62 NSCLC
  GI50: < 0.01 µM
  TGI: 0.222 µM
PC-3 prostate
  GI50: 0.295 µM
  TGI: 1.49 µM
OVCAR-4 ovarian
  GI50: 1.29 µM
  TGI: 24.1 µM
NCI-H522 lung
  GI50: 0.0372 µM
  TGI: 0.204 µM
SR leukemia
  GI50: < 0.01 µM
HL-60(TB) leukemia
  GI50: < 0.01 µM
  TGI: 2.39 µM
A549 NSCLC
  GI50: 0.158 µM
  TGI: 2.87 µM
CCRF-CEM leukemia
  GI50: < 0.01 µM
  TGI: 0.0713 µM
SK-OV-3 ovarian
  GI50: 0.327 µM
  TGI: 46.5 µM
UACC-257 melanoma
  GI50: 0.165 µM
  TGI: 0.444 µM
MDA-MB-231 breast
  GI50: 0.245 µM
  TGI: 0.55 µM
ACHN renal
  GI50: < 0.0169 µM
  TGI: 0.167 µM
IGROV1 ovarian
  GI50: 0.0599 µM
SK-MEL-28 melanoma
  GI50: 0.424 µM
  TGI: 8.45 µM
SK-MEL-5 melanoma
  GI50: 0.0511 µM
  TGI: 0.127 µM
SNB-19 CNS
  GI50: 0.376 µM
  TGI: > 100 µM
UO-31 renal
  GI50: 0.315 µM
  TGI: 4.64 µM
SK-MEL-2 melanoma
  GI50: 0.279 µM
SNB-75 CNS
  GI50: 0.0488 µM
  TGI: > 100 µM
EKVX NSCLC
  GI50: 1.1 µM
  TGI: 7.78 µM
NCI-H23 lung
  GI50: < 0.0373 µM
  TGI: 0.394 µM
M14 melanoma
  GI50: 0.0275 µM
  TGI: 0.272 µM
MDA-MB-435
  GI50: 0.169 µM
  TGI: 0.761 µM
SW-620 colon
  GI50: 0.0701 µM
  TGI: 0.452 µM
HS 578T breast
  GI50: 0.0581 µM
  TGI: 0.246 µM
NCI-H460 lung
  GI50: < 0.01 µM
  TGI: 0.143 µM
U251 CNS
  GI50: 0.0135 µM
  TGI: 0.235 µM
K-562 leukemia
  GI50: 0.0325 µM
  TGI: 1.94 µM
A498 renal
  GI50: 0.0863 µM
  TGI: 0.217 µM
HCC-2998 colon
  GI50: 0.229 µM
  TGI: 2.89 µM
DU-145 prostate
  GI50: 0.097 µM
  TGI: 2.67 µM
RPMI-8226 leukemia
  GI50: < 0.0151 µM
  TGI: 0.0622 µM
KM12 colon
  GI50: 0.369 µM
  TGI: 1.15 µM
